Results on 53 compounds are retold here after the Kinase Knowledgebase extract (Sharma et al. 2016).

SMILES strings stand for the structures.

This experiment concerns the target MAPK14 (human) (UniProt Q16539). The experiment in a line: Inhibition of MAPK14 Kinase Activity.

MAPK14 (human), sequence (Q16539 whole entry, looked up): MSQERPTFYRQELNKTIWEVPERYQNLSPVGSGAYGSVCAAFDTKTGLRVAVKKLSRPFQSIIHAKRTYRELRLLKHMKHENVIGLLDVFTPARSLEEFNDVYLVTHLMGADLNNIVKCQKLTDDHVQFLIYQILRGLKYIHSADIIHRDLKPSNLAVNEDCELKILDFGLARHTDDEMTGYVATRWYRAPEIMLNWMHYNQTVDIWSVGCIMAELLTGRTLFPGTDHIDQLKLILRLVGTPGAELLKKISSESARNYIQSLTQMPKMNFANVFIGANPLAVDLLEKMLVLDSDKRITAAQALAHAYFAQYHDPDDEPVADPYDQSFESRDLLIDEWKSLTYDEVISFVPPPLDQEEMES

The term IC50 denotes the concentration at which inhibition is half-maximal. A lower IC50 goes with higher potency. `CCOC(=O)c1cc2c(ccc(=O)n2-c2ccc(C)cc2)n1Cc1cccc(Cl)c1` gave an IC50 of at most 2000 nM.
`O=C(c1cc2c(ccc(=O)n2-c2ccccc2)n1Cc1cccc(Cl)c1)N1CCCC1`: the IC50 was at most 2000 nM.
With `O=c1ccc2c(ccn2CCc2ccccc2)n1-c1ccccc1`, the IC50 is at most 2000 nM.
To `Cc1cccc(Cn2c(C(N)=O)cc3c2ccc(=O)n3-c2ccccc2)c1` belongs at most 2000 nM; to `NC(=O)c1cc2c(ccc(=O)n2-c2ccc3[nH]ccc3c2)n1Cc1cccc(Cl)c1`, at most 2000 nM.
To `O=c1ccc2c(ccn2Cc2ccccc2)n1-c1ccccc1` belongs at most 2000 nM; to `CNC(=O)c1cc2c(ccc(=O)n2-c2ccccc2)n1Cc1cccc(Cl)c1`, at most 2000 nM; to `CCOC(=O)c1cc2c(ccc(=O)n2-c2ccccc2)n1Cc1ccccc1`, at most 2000 nM.
To `CC(c1ccccc1)n1ccc2c1ccc(=O)n2-c1ccccc1` (stereo not drawn) belongs at most 2000 nM; to `Cc1cccc(Cn2ccc3c2ccc(=O)n3-c2ccccc2)c1`, at most 2000 nM; to `NNC(=O)c1cc2c(ccc(=O)n2-c2ccccc2)n1Cc1cccc(Cl)c1`, at most 2000 nM.
As for `CCOC(=O)c1cc2c(ccc(=O)n2-c2ccccc2[N+](=O)[O-])n1Cc1cccc(Cl)c1`, the IC50 was at most 2000 nM.
On to `Cc1ccccc1Cn1ccc2c1ccc(=O)n2-c1ccccc1`, for which the IC50 is at most 2000 nM.
To `Cc1ccc(Cn2ccc3c2ccc(=O)n3-c2ccccc2)cc1` belongs at most 2000 nM; to `O=c1ccc2c(ccn2Cc2cc(Cl)ccc2Cl)n1-c1ccccc1`, at most 2000 nM.
Regarding `N#Cc1ccccc1Cn1c(C(N)=O)cc2c1ccc(=O)n2-c1ccccc1`, the IC50 was at most 2000 nM.
To `O=c1ccc2c(ccn2Cc2nc3ccccc3s2)n1-c1ccccc1` belongs at most 2000 nM.
To `CON(C)C(=O)c1cc2c(ccc(=O)n2-c2ccccc2)n1Cc1ccc(F)c(Cl)c1` belongs at most 2000 nM; to `NC(=O)c1cc2c(ccc(=O)n2-c2ccccc2)n1Cc1cccc(Cl)c1`, at most 2000 nM.
To `O=c1ccc2c(ccn2Cc2ccc(Cl)c(Cl)c2)n1-c1ccccc1` belongs at most 2000 nM.
The compound `CCOC(=O)c1cc2c(ccc(=O)n2-c2ccccc2)n1Cc1cccc(Cl)c1` showed an IC50 of at most 2000 nM.
To `CON(C)C(=O)c1cc2c(ccc(=O)n2-c2ccccc2)n1Cc1cccc(C)c1` belongs at most 2000 nM; to `O=c1ccc2c(ccn2Cc2ccc(F)cc2)n1-c1ccccc1`, at most 2000 nM.
To `O=c1ccc2c(ccn2Cc2ccc(F)cc2F)n1-c1ccccc1` belongs at most 2000 nM; to `O=C(c1ccccc1)n1ccc2c1ccc(=O)n2-c1ccccc1`, at most 2000 nM; to `O=c1ccc2c(ccn2Cc2c(Cl)cccc2Cl)n1-c1ccccc1`, at most 2000 nM.
To `O=C(c1cn(Cc2ccccc2)c2ccc(=O)n(-c3ccccc3)c12)C(F)(F)F` belongs at most 2000 nM; to `O=c1ccc2c(ccn2Cc2ccc(Cl)s2)n1-c1ccccc1`, at most 2000 nM; to `O=c1ccc2c(ccn2Cc2ccncc2)n1-c1ccccc1`, at most 2000 nM.
On to `CCOC(=O)c1cc2c(ccc(=O)n2-c2ccc3[nH]ccc3c2)n1Cc1cccc(Cl)c1`, for which the IC50 was at most 2000 nM.
To `CCOC(=O)c1cc2c(ccc(=O)n2-c2ccccc2)n1Cc1ccc(F)c(C)c1` belongs at most 2000 nM; to `O=c1ccc2c(ccn2Cc2ccc(Cl)cc2)n1-c1ccccc1`, at most 2000 nM.
To `O=c1ccc2c(ccn2Cc2cccnc2)n1-c1ccccc1` belongs at most 2000 nM.
`N#Cc1cc2c(ccc(=O)n2-c2ccccc2)n1Cc1cccc(Cl)c1`: the IC50 was at most 2000 nM.
To `CON(C)C(=O)c1cc2c(ccc(=O)n2-c2ccccc2)n1Cc1cccc(Cl)c1` belongs at most 2000 nM.
To `NC(=O)c1cc2c(ccc(=O)n2-c2ccccc2)n1Cc1ccc(F)c(Cl)c1` belongs at most 2000 nM.
To `O=c1ccc2c(ccn2Cc2cccc(Cl)c2)n1-c1ccsc1` belongs at most 2000 nM; to `N#Cc1cccc(Cn2ccc3c2ccc(=O)n3-c2ccccc2)c1`, at most 2000 nM.
Take `Cc1cc(Cn2c(C(N)=O)cc3c2ccc(=O)n3-c2ccccc2)ccc1F`: the IC50 is at most 2000 nM.
Turning to `CN(C)C(=O)c1cc2c(ccc(=O)n2-c2ccccc2)n1Cc1cccc(Cl)c1`, the IC50 was at most 2000 nM.
To `CCOC(=O)c1cc2c(ccc(=O)n2-c2ccsc2)n1Cc1cccc(Cl)c1` belongs at most 2000 nM; to `O=c1ccc2c(cc(S(=O)(=O)N3CCCC3)n2Cc2cccc(Cl)c2)n1-c1ccccc1`, at most 2000 nM; to `O=c1ccc2c(ccn2Cc2ccc(F)c(F)c2)n1-c1ccccc1`, at most 2000 nM.
To `COc1cccc(Cn2ccc3c2ccc(=O)n3-c2ccccc2)c1` belongs at most 2000 nM.
To `CCOC(=O)c1cc2c(ccc(=O)n2-c2ccccc2)n1Cc1ccc(F)c(Cl)c1` belongs at most 2000 nM; to `CCOC(=O)c1cc2c(ccc(=O)n2-c2ccccc2)n1Cc1cccc(C)c1`, at most 2000 nM; to `O=c1ccc2c(ccn2Cc2ccc(F)c(Cl)c2)n1-c1ccccc1`, at most 2000 nM.
In the case of `Cc1ccc(-n2c(=O)ccc3c2cc(C(N)=O)n3Cc2cccc(Cl)c2)cc1`, the 50% inhibitory concentration (IC50) is at most 2000 nM.
To `COc1ccc(-n2c(=O)ccc3c2ccn3Cc2ccccc2)cc1` belongs at most 2000 nM.
To `Cc1ccc(-n2c(=O)ccc3c2cc(C(=O)NN)n3Cc2cccc(Cl)c2)cc1` belongs at most 2000 nM; to `Cc1cccc(Cn2c(C(=O)N3CCC[C@H]3CO)cc3c2ccc(=O)n3-c2ccccc2)c1`, at most 2000 nM; to `O=c1ccc2c(ccn2Cc2cccc(Cl)c2)n1-c1ccccc1`, at most 2000 nM.
To `N#Cc1ccc(Cn2ccc3c2ccc(=O)n3-c2ccccc2)cc1` belongs at most 2000 nM.
